Source: PMC6968633, “Synthesis, antibacterial and anticancer activity, and docking study of aminoguanidines containing an alkynyl moiety” (Journal of Enzyme Inhibition and Medicinal Chemistry, 2019)
Converted amounts (≈) assume the structure as drawn.

What was measured:
[1] = test system: Staphyiococcus aureus CMCC 25923; test: Antibacterial MIC, serial dilution; assay type: cell-based, Staphylococcus aureus; conditions: Staphylococcus aureus, CMCC25923; S. aureus CMCC 25923, 24 h, 37 °C; read-out: MIC
Protocol: (§1) Test bacteria were grown to mid-log phase in Mueller–Hinton broth (MHB) or Tryptone Soya Broth (TSB) and diluted 1000-fold in the same medium. Bacteria (10^5 CFU/mL) were inoculated into MHB or TSB and dispensed at 0.2 ml/well into a 96-well microtiter plate. As positive controls, gatifloxacin, moxifloxacin, norfloxacin, oxacillin, and penicillin were used. […] Bacterial growth was determined by measuring the absorption at 630 nm using a microplate reader. All experiments were carried out three times.
(§2) The evaluation of antibacterial activity of all compounds (3a–3j and 6a–6k) was performed by a serial dilution method to determine the MIC against a panel of pathogens comprising five Gram-positive strains (S. aureus (CMCC(B) 26003 and CMCC 25923), Streptococcus mutans BNCC 336931, Enterococcus faecalis CMCC 29212, and Bacillus subtilis CMCC 63501), four Gram-negative strains (E. coli (CMCC 25922 and CMCC 44568) and P. aeruginosa (CMCC 27853 and CMCC 10104)), as well as three methicillin-resistant clinical isolates (S. aureus ATCC 43300 and ATCC 33591, P. aeruginosa ATCC BAA-2111). The results are described in Tables 1 and 2. Gatifloxacin, moxifloxacin, norfloxacin, oxacillin, and penicillin were used as positive controls.

[2] = test system: Bacillus subtilis CMCC 63501; test: Antibacterial MIC, serial dilution; assay type: cell-based; conditions: Bacillus subtilis, CMCC63501; B. subtilis CMCC 63501, 24 h, 37 °C; read-out: MIC
Protocol: as §1, §2

[3] = test system: Enterococcus faecalis CMCC 29212; test: Antibacterial MIC, serial dilution; assay type: cell-based; conditions: Enterococcus faecalis, CMCC29212; E. faecalis CMCC 29212, 24 h, 37 °C; read-out: MIC
Protocol: as §1, §2

[4] = test system: Escherichia coli CMCC 25922; test: Antibacterial MIC, serial dilution; assay type: cell-based; conditions: Escherichia coli, CMCC25922; E. coli CMCC 25922, 24 h, 37 °C; read-out: MIC
Protocol: as §1, §2

[5] = test system: Escherichia coli CMCC 44568; test: Antibacterial MIC, serial dilution; assay type: cell-based; conditions: Escherichia coli, CMCC44568; E. coli CMCC 44568, 24 h, 37 °C; read-out: MIC
Protocol: as §1, §2

[6] = test system: Pseudomonas aeruginosa CMCC 10104; test: Antibacterial MIC, serial dilution; assay type: cell-based; conditions: Pseudomonas aeruginosa, CMCC10104; P. aeruginosa CMCC 10104, 24 h, 37 °C; read-out: MIC
Protocol: as §1, §2

[7] = test system: Pseudomonas aeruginosa CMCC 27853; test: Antibacterial MIC, serial dilution; assay type: cell-based; conditions: Pseudomonas aeruginosa, CMCC27853; P. aeruginosa CMCC 27853, 24 h, 37 °C; read-out: MIC
Protocol: as §1, §2

[8] = test system: Staphylococcus aureus CMCC(B)26003; test: Antibacterial MIC, serial dilution; assay type: cell-based; conditions: Staphylococcus aureus; S. aureus CMCC(B)26003, 24 h, 37 °C; read-out: MIC
Protocol: as §1, §2

[9] = test system: Streptococcus mutans BNCC 336931; test: Antibacterial MIC, serial dilution; assay type: cell-based; conditions: Streptococcus mutans, BNCC336931; S. mutans BNCC 336931, 24 h, 37 °C; read-out: MIC
Protocol: as §1, §2

[10] = test system: Pseudomonas aeruginosa ATCC BAA-2111; test: Antibacterial MIC, multidrug-resistant clinical isolate; assay type: cell-based; conditions: ATCCBAA2111, multidrug-resistant P. aeruginosa ATCC BAA-2111
Protocol: as §1, §2

[11] = test system: Staphylococcus aureus ATCC 33591; test: as above; assay type: cell-based; conditions: Staphylococcus aureus, ATCC33591; multidrug-resistant S. aureus ATCC 33591; read-out: MIC
Protocol: as §1, §2

[12] = test system: Staphylococcus aureus ATCC 43300; test: as above; assay type: cell-based; conditions: Staphylococcus aureus, ATCC43300; multidrug-resistant S. aureus ATCC 43300; read-out: MIC
Protocol: as §1, §2

[13] = test system: A549; test: Cytotoxicity, CCK-8 assay; assay type: cell-based; conditions: Homo sapiens, A549 lung cancer cells, 48 h
Protocol: (§3) A lung cancer cell line (A549), gastric cancer cell line (SGC7901) and human hepatocytes (L02) were used to test the anticancer activity and cytotoxicity of the new compounds. 5-Fluorouracil (5-FU) was used as the positive control against cancer cell lines. The A549, SGC7901 and L02 cells were grown in Dulbecco’s modified Eagle’s medium (DMEM) supplemented with 10% foetal bovine serum (FBS) and antibiotics (100 U/mL penicillin-streptomycin). Cells at 80–90% confluence were split by trypsin (0.25% in PBS; pH 7.4), and the medium was changed at 24 h intervals. The cells were cultured at 37 °C in a 5% CO2 incubator. The cells were passaged three times, then approximately 1 × 10^4 cells were seeded into each well of a 96-well plate and allowed to incubate to allow attachment of the cells to the surface. After 24 h, the medium was replaced with DMEM supplemented with 10% FBS containing various concentrations (0.1, 0.3, 1, 3, 10, and 30 μg/mL) of test compounds. Each concentration was tested in triplicate. After 48 h treatment, 20 µL of CCK-8 solution was added to each well and the optical density measured at 450 nm after 3 h using a microplate reader. The IC50 values were defined as the concentrations inhibiting 50% of cell growth.

[14] = test system: SGC7901; test: Cytotoxicity, CCK-8 assay; assay type: cell-based; conditions: Homo sapiens, SGC-7901, SGC7901 gastric cancer cells, 48 h
Protocol: as §3

[15] = test system: L02; test: Cytotoxicity, CCK-8 assay, normal cell line; assay type: cell-based; conditions: L02 normal human hepatocytes, 48 h
Protocol: as §3

[16] = test system: Escherichia coli CMCC 44568; test: Bacterial resistance development, serial passaging at sub-MIC; assay type: cell-based; conditions: E. coli, passaging at MIC/2
Protocol: (§4) To evaluate the propensity for developing bacterial resistance, one of the compounds with high antibacterial activity (3g) was used. The initial MIC values of 3g were determined against bacteria Staphylococcus aureus CMCC 25923 and Escherichia coli CMCC 44568, using norfloxacin and colistin, respectively, as antibiotic controls. Subsequently, serial passaging was initiated by transferring bacterial suspension grown at the sub-MIC of the compound/antibiotics (MIC/2) to a new plate and subjecting it to another assay to determine the (new) MIC. After 22 h incubation, cells grown at the sub-MIC of the test compound/antibiotics were once again transferred and the MIC determined. The process was repeated for 20 or 30 passages for S. aureus and E. coli, respectively. The MIC for 3g, norfloxacin and colistin was plotted as a function of time in days (number of passages) to determine the propensity of bacterial resistance development.
(§5) Bacterial resistance against most antibiotics presents a major problem of current times. Therefore, it is crucial to evaluate the potential emergence of bacterial resistance against these biocides. […] Norfloxacin, an antibiotic generally used to treat the Gram-positive infections, was used as a positive control for S. aureus, whereas colistin, a lipopeptide antibiotic active against Gram-negative bacteria, was used as a positive control for E. coli. These antibacterial agents were repeatedly challenged against bacteria at their sub-MIC values to allow bacteria to develop resistance. Resistance is usually defined as a > 4-fold increase in the original MIC[32].

[17] = test system: Staphylococcus aureus CMCC 25923; test: as above; assay type: cell-based; conditions: S. aureus, passaging at MIC/2, 20 passages
Protocol: as §4, §5

[18] = test system: Methicillin-resistant S. aureus ATCC 33591; test: Bactericidal time-kill assay; assay type: cell-based, Staphylococcus aureus; conditions: MRSA; for nature of antibacterial effect in time-kill assay: 1 × MIC and 2 × MIC
Protocol: Methicillin-resistant S. aureus ATCC 33591 grown in MHB was used to determine time-kill kinetics. Bacterial suspensions (10^5 CFU/mL) containing test compounds (norflocaxin, compound 3g) at final concentrations of 1 × MIC and 2 × MIC were incubated at 37 °C with shaking. Aliquots (10 μL) were removed from the cultures after 0, 0.5, 1, 2, 3, 4, 6, 8 and 12 h, serially diluted 1000-fold in nutrient solution, and plated onto sterile Mueller-Hinton agar medium. Plates were then incubated for 24 h at 37 °C, the number of CFU was counted, and the total bacterial log10 CFU/mL was determined.

[19] = test system: tested bacterial strains; test: Antibacterial MIC, panel of tested bacterial strains; assay type: cell-based; conditions: against almost all of the tested strains
Protocol: as §1, §2

Row | SMILES | MIC [1] [µg/mL] | MIC [2] [µg/mL] | MIC [3] [µg/mL] | MIC [4] [µg/mL] | MIC [5] [µg/mL] | MIC [6] [µg/mL] | MIC [7] [µg/mL] | MIC [8] [µg/mL] | MIC [9] [µg/mL] | MIC [10] [µg/mL] | MIC [11] [µg/mL] | MIC [12] [µg/mL] | IC50 [13] [µg/mL] | IC50 [14] [µg/mL] | IC50 [15] [µg/mL] | increase in MIC on serial passaging [17] | nature of antibacterial effect in time-kill assay [18] | melting point [°C] | MIC [19] [µg/mL] | also measured
1 | N=C(N)NN=Cc1ccc(C#Cc2ccc(Cl)cc2)cc1 [Compound 3g, 2-(4-((4-Chlorophenyl)ethynyl)benzylidene)hydrazine-1-carboximidamide] | 0.5 (≈ 1.68 µM) | 0.25 (≈ 0.842 µM) | 0.5 (≈ 1.68 µM) | 2 (≈ 6.74 µM) | 2 (≈ 6.74 µM) | 1 (≈ 3.37 µM) | > 128 | 0.5 (≈ 1.68 µM) | 0.5 (≈ 1.68 µM) | 4 (≈ 13.5 µM) | 0.5 (≈ 1.68 µM) | 1 (≈ 3.37 µM) | 4.42 (≈ 14.9 µM) | 1.01 (≈ 3.4 µM) | 20.9 (≈ 70.3 µM) | little change | rapidly bactericidal | 232 to 234 |  | increase in MIC on serial passaging [16]: little change; persistence of bactericidal activity ([18]; 2 × MIC): 12 h; reduction of bacterial count ([18]; 2 × MIC, after 2 h, start 5.5 log10 CFU/mL): > 5 log10 CFU/mL
2 | N=C(N)NN=Cc1ccc(C#CC#Cc2ccccc2)cc1 [Compound 6a, 2-(4-(Phenylbuta-1,3-diyn-1-yl)benzylidene)hydrazine-1-carboximidamide] | > 128 | 0.5 (≈ 1.75 µM) | 0.5 (≈ 1.75 µM) | 128 (≈ 447 µM) | 128 (≈ 447 µM) | 1 (≈ 3.49 µM) | > 128 | 0.5 (≈ 1.75 µM) | 0.5 (≈ 1.75 µM) | > 64 | 0.5 (≈ 1.75 µM) | 4 (≈ 14 µM) | 2.49 (≈ 8.7 µM) | 1.63 (≈ 5.69 µM) | 13.4 (≈ 46.7 µM) |  |  | 209 to 212 |  | 
3 | N=C(N)NN=Cc1ccc(C#CC#Cc2ccc(F)cc2)cc1 [Compound 6d, 2-(4-((4-Fluorophenyl)buta-1,3-diyn-1-yl)benzylidene)hydrazine-1-carboximidamide] | 4 (≈ 13.1 µM) | > 128 | 128 (≈ 421 µM) | > 128 | > 128 | > 128 | > 128 | 64 (≈ 210 µM) | > 128 |  |  |  |  |  |  |  |  | 206 to 210 | ≥ 128 | 
4 | N=C(N)NN=Cc1ccc(C#CC#Cc2ccc(Cl)cc2)cc1 [Compound 6g, 2-(4-((4-Chlorophenyl)buta-1,3-diyn-1-yl)benzylidene)hydrazine-1-carboximidamide] | > 128 | > 128 | 128 (≈ 399 µM) | 128 (≈ 399 µM) | 128 (≈ 399 µM) | > 128 | > 128 | > 128 | > 128 |  |  |  |  |  |  |  |  | 202 to 205 | ≥ 128 | 
5 | N=C(N)NN=Cc1ccc(C#CC#Cc2cccc(Br)c2)cc1 [Compound 6i, 2-(4-((3-Bromophenyl)buta-1,3-diyn-1-yl)benzylidene)hydrazine-1-carboximidamide] | 128 (≈ 350 µM) | 2 (≈ 5.48 µM) | 0.5 (≈ 1.37 µM) | 64 (≈ 175 µM) | 128 (≈ 350 µM) | 128 (≈ 350 µM) | > 128 | 2 (≈ 5.48 µM) | 0.5 (≈ 1.37 µM) |  |  |  |  |  |  |  |  | 196 to 198 | ≥ 128 | 
6 | CCn1cc(C(=O)O)c(=O)c2cc(F)c(N3CCNCC3)cc21 [Norfloxacin, reference compound] | 0.125 (≈ 0.391 µM) | 2 (≈ 6.26 µM) | 1 (≈ 3.13 µM) | 0.125 (≈ 0.391 µM) | 0.125 (≈ 0.391 µM) | 4 (≈ 12.5 µM) | 2 (≈ 6.26 µM) | 0.125 (≈ 0.391 µM) | 16 (≈ 50.1 µM) | 1 (≈ 3.13 µM) | 0.25 (≈ 0.783 µM) | 0.5 (≈ 1.57 µM) |  |  |  | approximately 32 fold | bacteriostatic, not bactericidal |  |  | 
